Common to all, as to format: functional
Assay [1] concerns Streptococcus pyogenes. As to the kind of experiment: Antimicrobial activity against macrolide-sensitive Streptococcus pyogenes 3665.
Assay [2] has as its system Streptococcus pneumoniae. As to the kind of experiment: Antimicrobial activity against inducible macrolide and constitutive lincosamide, streptogramin-resistant Streptococcus pneumoniae 4636.
A further assay relates to Staphylococcus aureus. As to the kind of experiment: Antimicrobial activity against macrolide-sensitive Staphylococcus aureus ATCC 13709.
A further assay concerns Haemophilus influenzae. As to the kind of experiment: Antimicrobial activity against Haemophilus influenzae ATCC 49247.
Assay [3] concerns Streptococcus pneumoniae. As to the kind of experiment: Antimicrobial activity against macrolide-sensitive Streptococcus pneumoniae SPO 30.
Assay [4] relates to Streptococcus pneumoniae. As to the kind of experiment: Antimicrobial activity against macrolide-resistant Streptococcus pneumoniae Ci137.
The subject of assay [5] is Streptococcus pyogenes. As to the kind of experiment: Antimicrobial activity against inducible macrolide, lincosamide, streptogramin-resistant Streptococcus pyogenes Finland 11.

The source of these data is ChEMBL document CHEMBL1155520, “Novel 8a-aza-8a-homoerythromycin--4''-(3-substituted-amino)propionates with broad spectrum antibacterial activity” (2010).

The structures appear in SMILES notation. ≈ marks a conversion by molar mass, not a printed value. Bounds are passed on as bounds.

On to `CC[C@H]1OC(=O)[C@H](C)[C@@H](O[C@H]2C[C@@](C)(OC)[C@@H](OC(=O)CCNCC(=O)Nc3ccc4ccccc4c3)[C@H](C)O2)[C@H](C)[C@@H](O[C@@H]2O[C@H](C)C[C@H](N(C)C)[C@H]2O)[C@](C)(OC)C[C@@H](C)NC(=O)[C@H](C)[C@@H](O)[C@]1(C)O`, for which the MIC is under 0.13 µg/mL in the assay with Streptococcus pyogenes [1]; 16 µg/mL (≈ 15.7 µM) in the assay on Streptococcus pneumoniae [2]; 1 µg/mL (≈ 0.983 µM) in the assay on Staphylococcus aureus; 2 µg/mL (≈ 1.97 µM) in the assay with Haemophilus influenzae; under 0.13 µg/mL in the assay with Streptococcus pneumoniae [3]; 2 µg/mL (≈ 1.97 µM) against Streptococcus pneumoniae [4]. The same molecule returned an MIC in the assay on Streptococcus pyogenes [5] of 16 µg/mL (≈ 15.7 µM).

For `CC[C@H]1OC(=O)[C@H](C)[C@@H](O[C@H]2C[C@@](C)(OC)[C@@H](OC(=O)CCNCC(=O)Nc3ccc([N+](=O)[O-])cc3)[C@H](C)O2)[C@H](C)[C@@H](O[C@@H]2O[C@H](C)C[C@H](N(C)C)[C@H]2O)[C@](C)(OC)C[C@@H](C)NC(=O)[C@H](C)[C@@H](O)[C@]1(C)O`, the MIC with Streptococcus pyogenes [1] is under 0.13 µg/mL; with Streptococcus pneumoniae [2], 16 µg/mL (≈ 15.8 µM); with Staphylococcus aureus, 1 µg/mL (≈ 0.988 µM); in the assay on Haemophilus influenzae, 2 µg/mL (≈ 1.98 µM); in the assay on Streptococcus pneumoniae [3], under 0.13 µg/mL; in the assay with Streptococcus pneumoniae [4] it was 2 µg/mL (≈ 1.98 µM). In addition, the MIC in the assay with Streptococcus pyogenes [5] was determined as 4 µg/mL (≈ 3.95 µM).

Turning to `CC[C@H]1OC(=O)[C@H](C)[C@@H](O[C@H]2C[C@@](C)(OC)[C@@H](OC(=O)CCN[C@@H](C)c3ccc([N+](=O)[O-])cc3)[C@H](C)O2)[C@H](C)[C@@H](O[C@@H]2O[C@H](C)C[C@H](N(C)C)[C@H]2O)[C@](C)(OC)C[C@@H](C)NC(=O)[C@H](C)[C@@H](O)[C@]1(C)O`, the MIC in the assay on Streptococcus pyogenes [1] is under 0.13 µg/mL; in the assay with Streptococcus pneumoniae [2], over 32 µg/mL; in the assay on Staphylococcus aureus it was 2 µg/mL (≈ 2.03 µM); against Haemophilus influenzae it was 32 µg/mL (≈ 32.5 µM); against Streptococcus pneumoniae [3], under 0.13 µg/mL; in the assay on Streptococcus pneumoniae [4], 2 µg/mL (≈ 2.03 µM). Further, in the assay on Streptococcus pyogenes [5], the MIC was determined as 4 µg/mL (≈ 4.07 µM).

On to `CC[C@H]1OC(=O)[C@H](C)[C@@H](O[C@H]2C[C@@](C)(OC)[C@@H](OC(=O)CCN[C@H](C)c3ccc([N+](=O)[O-])cc3)[C@H](C)O2)[C@H](C)[C@@H](O[C@@H]2O[C@H](C)C[C@H](N(C)C)[C@H]2O)[C@](C)(OC)C[C@@H](C)NC(=O)[C@H](C)[C@@H](O)[C@]1(C)O`, for which the MIC in the assay on Streptococcus pyogenes [1] was under 0.13 µg/mL; in the assay with Streptococcus pneumoniae [2], over 32 µg/mL; in the assay with Staphylococcus aureus, 1 µg/mL (≈ 1.02 µM); against Haemophilus influenzae it was 32 µg/mL (≈ 32.5 µM); against Streptococcus pneumoniae [3], under 0.13 µg/mL; against Streptococcus pneumoniae [4], 2 µg/mL (≈ 2.03 µM). Further, the MIC against Streptococcus pyogenes [5] was determined as 4 µg/mL (≈ 4.07 µM).

As for `CC[C@H]1OC(=O)[C@H](C)[C@@H](O[C@H]2C[C@@](C)(OC)[C@@H](OC(=O)CCN[C@@H](C)C(=O)Nc3ccc([N+](=O)[O-])cc3)[C@H](C)O2)[C@H](C)[C@@H](O[C@@H]2O[C@H](C)C[C@H](N(C)C)[C@H]2O)[C@](C)(OC)C[C@@H](C)NC(=O)[C@H](C)[C@@H](O)[C@]1(C)O`, the MIC was under 0.13 µg/mL with Streptococcus pyogenes [1]; 16 µg/mL (≈ 15.6 µM) against Streptococcus pneumoniae [2]; 0.5 µg/mL (≈ 0.487 µM) against Staphylococcus aureus; 2 µg/mL (≈ 1.95 µM) against Haemophilus influenzae; under 0.13 µg/mL with Streptococcus pneumoniae [3]; 0.5 µg/mL (≈ 0.487 µM) against Streptococcus pneumoniae [4]. In addition, the MIC in the assay with Streptococcus pyogenes [5] amounted to 1 µg/mL (≈ 0.974 µM).

`CC[C@H]1OC(=O)[C@H](C)[C@@H](O[C@H]2C[C@@](C)(OC)[C@@H](OC(=O)CCN3CCN(c4ccc([N+](=O)[O-])cc4)CC3)[C@H](C)O2)[C@H](C)[C@@H](O[C@@H]2O[C@H](C)C[C@H](N(C)C)[C@H]2O)[C@](C)(OC)C[C@@H](C)NC(=O)[C@H](C)[C@@H](O)[C@]1(C)O`: the MIC was under 0.13 µg/mL against Streptococcus pyogenes [1]; 8 µg/mL (≈ 7.81 µM) against Streptococcus pneumoniae [2]; 2 µg/mL (≈ 1.95 µM) in the assay on Staphylococcus aureus; 2 µg/mL (≈ 1.95 µM) in the assay with Haemophilus influenzae; under 0.13 µg/mL against Streptococcus pneumoniae [3]; 1 µg/mL (≈ 0.976 µM) in the assay with Streptococcus pneumoniae [4]. The molecule also displayed an MIC against Streptococcus pyogenes [5] of 8 µg/mL (≈ 7.81 µM).

Turning to `CC[C@H]1OC(=O)[C@H](C)[C@@H](O[C@H]2C[C@@](C)(OC)[C@@H](OC(=O)CCNCC(=O)Nc3cnc4ccccc4c3)[C@H](C)O2)[C@H](C)[C@@H](O[C@@H]2O[C@H](C)C[C@H](N(C)C)[C@H]2O)[C@](C)(OC)C[C@@H](C)NC(=O)[C@H](C)[C@@H](O)[C@]1(C)O`, the MIC was under 0.13 µg/mL in the assay with Streptococcus pyogenes [1]; over 32 µg/mL with Streptococcus pneumoniae [2]; 2 µg/mL (≈ 1.96 µM) against Staphylococcus aureus; over 32 µg/mL in the assay with Haemophilus influenzae; under 0.13 µg/mL against Streptococcus pneumoniae [3]; 2 µg/mL (≈ 1.96 µM) with Streptococcus pneumoniae [4]. In the assay on Streptococcus pyogenes [5], this molecule gave an MIC of 16 µg/mL (≈ 15.7 µM).

On to `CC[C@H]1OC(=O)[C@H](C)[C@@H](O[C@H]2C[C@@](C)(OC)[C@@H](OC(=O)CCNCCNc3cccc4ccccc34)[C@H](C)O2)[C@H](C)[C@@H](O[C@@H]2O[C@H](C)C[C@H](N(C)C)[C@H]2O)[C@](C)(OC)C[C@@H](C)NC(=O)[C@H](C)[C@@H](O)[C@]1(C)O`, for which the MIC was under 0.13 µg/mL in the assay with Streptococcus pyogenes [1]; over 32 µg/mL in the assay with Streptococcus pneumoniae [2]; 1 µg/mL (≈ 0.997 µM) with Staphylococcus aureus; under 0.13 µg/mL in the assay on Streptococcus pneumoniae [3]; 2 µg/mL (≈ 1.99 µM) against Streptococcus pneumoniae [4]; 4 µg/mL (≈ 3.99 µM) against Streptococcus pyogenes [5].
